The values below come from patent US20080175891A1, “METHODS, COMPOSITIONS, AND FORMULATIONS FOR PREVENTING OR REDUCING ADVERSE EFFECTS IN A PATIENT” (priority 2007, published 2008).

Molecules are shown by their SMILES.

For data set [1] the following is noted: human, in vivo. An excerpt: Applicant also discovered that lower doses of AICA riboside were needed to achieve the desired blood concentration levels in anesthetized patients than in non-anesthetized patients. It appears that the dose needed in anesthetized patients may be about 20-50% less than the dose needed in non-anesthetized patients. Thus, a preferred dosage of AICA riboside (or prodrug) in a non-anesthetized patient or a patient anesthetized for a short time is larger than the preferred dosage for an anesthetized patient. Accordingly, dosages of from about 0.075 mg/kg/min to about 0.30 mg/kg/min are preferred in such cases, more preferably between about 0.10 mg/kg/min and about 0.15 mg/kg/min, and most preferably about 0.125 mg/kg/min.

The test system of data set [2] is mast cells. Put plainly: Mast cell activation / degranulation. The data set is classed as cell-based. The text has this:
As discussed in B. Benacerra and A. Unanue in Textbook of Immunology (Williams & Williams Baltimore/London, 1979), a key to suppressing allergic responses is to prevent the release of pharmacologically active substances by mast cells. Mast cells are large basophilic staining cells with extensive granules that contain substances, such as histamines, that are liberated by the mast cell during an allergic reaction and are required to support the allergic response. The release of these pharmacologically active substances present in mast cells is termed “degranulation.” Thus, chemicals that prevent degranulation should have a beneficial effect on reducing the severity of the allergic response. […] Mast cell activation also causes the release of prostaglandins and leukotrienses (non-preformed mediators) such as slow reactive substance of anaphylaxis.

In data set [3] the test system is patients with adenylosuccinase deficiency (autism). Put plainly: Therapeutic trials in patients with adenylosuccinase deficiency (autism) (Example X). The format is in vivo, human. The settings on record: oral. The method, then: Conditions potentially associated with chronic low adenosine may also be treated by compounds of the invention. These pathologic states include autism, insomnia, cerebral palsy, schizophrenia, and other neuropsychiatric symptoms. It is anticipated that doses ranging from 0.1 mg/kg/day up to about 200 mg/kg/day will be beneficial.

Data set [4] has as its system arrhythmias. Put plainly: Prophylactic effect of AICA riboside treatment on arrhythmias (Examples VI and XIV). The data set is classed as in vivo. An excerpt:
Another disease caused by or able to cause restricted blood flow is myocardial arrhythmia. Although restricted blood flow can initiate the onset of arrhythmia, the precise cause is unknown. However, it is known that lipid peroxidation by oxygen radicals is arrhythmogenic. Since the latter are produced by granulocytes, the inhibition of granulocyte superoxide production by the method of the invention can be expected to control arrhythmia. In addition, mast cells are in higher concentration in areas of atherosclerosis. Suppression of their activation might reduce the release of other mediators of arrhythmias. Adenosine also has direct anti-arrhythmic effects on myocytes. […] Rapid firing of cells during arrhythmia causes increased net ATP catabolism and adenosine release.

The test system of data set [5] is bronchospasm induced by antigen sensitization. The settings on record: guinea pig; cited from earlier work.
Data set [6] relates to pentylene tetrazol-induced seizures. Put plainly: Pentylene tetrazol-induced seizures (Example XIII). Particulars: in vivo. The text has this:
The adenosine released from neuronal cells when they are stimulated and break down ATP during seizure (epileptic) activity normally will feedback and suppress this seizure (epileptic) activity.

Data set [7] has as its system seizures. The settings on record: experimental animal model; cited from earlier work.

With `NC(=O)c1ncn([C@@H]2O[C@H](CO)[C@@H](O)[C@H]2O)c1N` [AICA riboside, 5-amino-1-β-D-ribofuranosyl-imidazole-4-carboxamide], in data set [1], the “dose needed in anesthetized patients, less than in non-anesthetized patients” value is 20-50%. Also, in data set [2], the mast cell activation entry is “suppress mast cell activation” and the mast cell degranulation result was “prevent mast cell degranulation”. For the same compound, the “clinical or biochemical side effects” value in data set [3] (5 mg/kg/day increased to 2×10 mg/kg/day) was “No clinical or biochemical side effects were observed”. In data set [3] (5 mg/kg/day increased to 2×10 mg/kg/day, both patients), the “behaviour during therapy as described by the parent” value is “more pleasantly active and more easy to handle during therapy”. Also, the clinical improvement entry in data set [3] (5 mg/kg/day increased to 2×5 and finally 2×10 mg/kg/day, two patients) was “clear-cut improvement in one of two patients”. Further, in data set [4], the “number of premature ventricular depolarizations” value is listed as “decreased number” and the “number of ventricular tachycardia episodes” value is “decreased number”. For the same compound, in data set [5], the anti-allergic actions result is “anti-allergic actions”. Besides, in data set [6], the “incidence of pentylene tetrazol-induced seizures” value is given as “decreased incidence” and the “latency to pentylene tetrazol-induced seizures” value is “prolonged latency”. The inhibition of seizures result in data set [7] was “inhibitor of seizures”.

For `Nc1c(C(=O)NCCCCCCNC(=O)c2ncn([C@@H]3O[C@H](CO)[C@@H](O)[C@H]3O)c2N)ncn1[C@@H]1O[C@H](CO)[C@@H](O)[C@H]1O` [Compound No. 68, N,N′-bis-(5-amino-1-β-D-ribofuranosylimidazole-4-carbonyl)-1,6-diaminohexane], the melting point lay within 181 to 185 °C.

With `NC(=O)c1ncn([C@@H]2O[C@H](CO)[C@@H](O)[C@H]2O)n1` [ribavirin, 1-β-D-ribofuranosyl-1H-1,2,4-triazole-3-carboxamide], in data set [2], the mast cell activation result is given as “suppress mast cell activation” and the mast cell degranulation entry is given as “prevent mast cell degranulation”.

With `CC(=O)OC[C@H]1O[C@@H](c2nc(C(N)=O)c(N)[nH]2)[C@H](OC(C)=O)[C@@H]1OC(C)=O` [Compound No. 2, 5-Amino-(2,3,5-tri-O-acetyl-beta-D-ribofuranosyl)imidazole-4-carboxamide], the melting point is 128 to 129 °C.
